What is called inhibition is the change of the read-out against control, counted positive when it falls. The term Kd denotes a measure of binding affinity in units of concentration. One may read the IC50 as the point on the concentration scale where inhibition reaches its midpoint.

Calls of active or inactive are those of the source. The rule behind the calls is not given here.

In one data set the test system is Staphylococcus aureus. Description: Inhibition of […] SrtA deltaN59 mutant expressed in Escherichia coli BL21(DE3) at 100 uM using Abz-LPETG-Dap(Dnp) as substrate preincubated for 10 mins followed by substrate addition measured every min for 2.5 hrs by fluorimetric assay.
Turning to `Nc1[nH]c2cc(Cl)ccc2c1C(=O)N1CCOCC1`, the inhibition entry is “inactive”.

A further data set deals with Streptococcus pyogenes. Put plainly: Inhibition of Streptococcus pyogenes SrtA deltaN81 mutant expressed in Escherichia coli BL21(DE3) at 100 uM using Abz-LPETA-Dap(Dnp) as substrate preincubated for 10 mins followed by substrate addition measured every min for 2.5 hrs by fluorimetric assay relative to control.
Consider `Nc1[nH]c2ccccc2c1C(=O)NC1CC1`, for which the inhibition amounted to 29.2%. With `O=C(O)CCC(=O)c1ccc2ccccc2c1`, the inhibition was 86.6%. Regarding `O=C(c1cccs1)N1CCN(c2ncccn2)CC1`, the inhibition stood at 10.2%. In the case of `CCOC(=O)c1[nH]c2cc(Cl)ccc2c1C(=O)CCC(=O)OC`, the inhibition came to 23.8%.

For `CCC(=O)c1cccs1`, the inhibition turned out to be 0.1%. Take `Cc1ccc(S(=O)(=O)/N=C/c2cc3ccc(Cl)cc3[nH]2)cc1`: the inhibition turned out to be 8.8%. On the same count and under the same terms, with `O=[N+]([O-])c1cccc2[nH]ccc12` the figure was 21.2%; with `O=C(O)c1cc2ccccc2[nH]1`, 4.5%; with `Nc1[nH]c2cc(Cl)ccc2c1C(=O)N1CCOCC1`, 91.6%. As to `CC(=O)NCCc1c[nH]cn1`, the inhibition stood at 3.8%. The same measure, in the same setting: then `O=Cc1c[nH]c2ccccc12`, with 1.5%; and `O=C(O)Cc1c[nH]cn1`, with -7.6%. As for `O=C(O)CCC(=O)c1cccs1`, the inhibition is 9.8%.

Regarding `CCCN1CCOC2c3c(ccc4[nH]ccc34)OCC21` (stereo not drawn), the inhibition was 13.4%.

For the molecule `O=Cc1c[nH]c2cc(Cl)ccc12`, the inhibition amounted to 6.4%. The same measure, in the same setting: then `Cn1c2c(c3ccccc31)C(=O)NCC2`, with 20.5%. As for `COc1ccc(CCNC(=O)c2cnn(-c3ccccc3)c2N)cc1OC`, the inhibition amounted to 4.6%. Take `O=Cc1nc2ccc(Cl)cc2[nH]1`: the inhibition stood at 19.9%. For the molecule `O=C(O)c1ccc2ccccc2n1`, the inhibition came to 23.1%. Consider `O=C(O)c1cc2cc(Cl)ccc2[nH]1`, for which the inhibition amounted to 9.1%. In the case of `N#CCC(=O)c1c[nH]c2cc(F)ccc12`, the inhibition came out at 10.7%. Turning to `Nc1ncccn1`, the inhibition was found to be 7.5%. For the molecule `O=c1c2cc3cc(Cl)ccc3nc2ncn1N1CCCCC1`, the inhibition was determined as 42.2%.

As to `COC(=O)c1cc2ccc(Cl)cc2[nH]1`, the inhibition was 28.2%. Take `Cn1c(C(=O)O)cc2ccccc21`: the inhibition was found to be 8.2%. Take `CC(=O)NCCc1c[nH]c2ccc(O)cc12`: the inhibition came out at 10.8%.

In the case of `Nc1c(C(=O)N2CCOCC2)cnn1Cc1ccccc1`, the inhibition was 1%. Turning to `CCOC(=O)c1cc2ccc(Cl)cc2[nH]1`, the inhibition came to 15%. As to `CC(C(=O)O)c1ccc2cc(OS(C)(=O)=O)ccc2c1` (stereo not drawn), the inhibition amounted to 17%. With `NCCc1c[nH]c2ccccc12`, the inhibition was -5.3%. Same read-out and setting: then `O=Cc1ccc[nH]1`, with 3.2%. For `Nc1[nH]c2ccccc2c1C(=O)NCCc1ccc(Cl)cc1Cl`, the inhibition amounted to 54.8%. On to `Nc1nccc(O)n1`, for which the inhibition stood at 14.5%. For the molecule `CCOC(=O)c1[nH]c2cc(Cl)ccc2c1N`, the inhibition was 12.8%.

Take `O=C(O)Cc1c[nH]c2ccccc12`: the inhibition was determined as 8.6%. Regarding `COc1ccc(C(O)c2[nH]c3ccccc3c2CCN)cc1` (stereo not drawn), the inhibition amounted to 60.8%. Take `CCOC(=O)c1[nH]c2cc(Cl)ccc2c1C#Cc1ccccc1`: the inhibition turned out to be 118%. For `CCOC(=O)c1c(C=O)c(C)n(-c2ccccc2)c1C`, the inhibition worked out at 2.9%. `CCOC(=O)c1cc(-c2ccccc2)c2cccc(O)c2c1`: the inhibition came out at 60.2%.

As to `CCC(=O)N1CCN(c2ncccn2)CC1`, the inhibition was found to be 11.6%.

Regarding `O=C1CCN2c3ccccc3Sc3ccc(Cl)c1c32`, the inhibition is 11.1%. For `O=C(O)c1[nH]c2cc(Cl)ccc2c1C(=O)Cc1ccc(Cl)cc1`, the inhibition was 28.3%.

For the molecule `NNC(=O)c1ccnc(C(=O)NN)c1`, the inhibition is 3%. Still for that read-out and setting: with `COC(=O)c1ccnc(C(=O)OC)c1` the figure was 5.5%; with `O=C(O)CCC(=O)c1c(C(=O)O)[nH]c2cc(Cl)ccc12`, 15.1%. With `Nc1[nH]c2cc(C(F)(F)F)ccc2c1C(=O)NC1CCCCC1`, the inhibition is -6.3%. Regarding `c1ccc2c3c([nH]c2c1)CNCC3`, the inhibition was 10.1%.

For `CCOC(=O)c1cc2ccccc2[nH]1`, the inhibition turned out to be 16.4%. With `O=Cc1c[nH]c2ccc(Cl)cc12`, the inhibition is 12.3%. Consider `COc1ccc2[nH]cc(CCNC(C)=O)c2c1`, for which the inhibition came out at 16%. On to `Nc1ncncc1C=O`, for which the inhibition was determined as 20.7%. In the case of `NC(Cc1c[nH]c2ccccc12)C(=O)O` (stereo not drawn), the inhibition came out at 5.5%.

As for `COc1cc(NS(=O)(=O)c2ccc(N)cc2)ncn1`, the inhibition stood at 12%.

`COc1cccc2c3c(ccc12)NC(=O)CC3`: the inhibition stood at 54.2%. With `O=c1cc[nH]c(=O)[nH]1`, the inhibition came to 2.7%.

With `Oc1ccc2ncccc2c1`, the inhibition stood at 115%. Still for that read-out and setting: with `O=C(O)c1cccs1` the figure was 1.4%.

As for `COc1ccc2[nH]cc(CCN)c2c1`, the inhibition was -1.9%. The same measure, in the same setting: then `Nc1ncccc1CO`, with -0.5%; and `CCOC(=O)NCCc1c[nH]c2ccc(OC)cc12`, with 11.7%. For the molecule `CCOC(=O)c1[nH]c2cc(Cl)ccc2c1C=O`, the inhibition was 25.7%. As for `COC(=O)c1cc2ccccc2[nH]1`, the inhibition was determined as 5.1%.

For `CC(C)NCC(O)COc1cccc2ccccc12` (stereo not drawn), the inhibition is -4.2%. Turning to `Nc1c(C(=O)NCC(O)c2ccccc2)cnn1-c1ccccc1` (stereo not drawn), the inhibition stood at 35.4%. `Nc1ccc(S(=O)(=O)Nc2ccccn2)cc1`: the inhibition amounted to 3.8%. In the case of `CCOC(=O)c1[nH]c2cc(Cl)ccc2c1/C=N/c1ccccc1`, the inhibition was 3.7%. With `O=C(O)c1cc2ccccc2s1`, the inhibition came to 4.5%. For the molecule `Cn1c(=O)c2[nH]cnc2n(C)c1=O`, the inhibition stood at 2.3%. Still for that read-out and setting: with `CCOC(=O)c1[nH]c2cc(Cl)ccc2c1C(=O)O` the figure was 26.3%. The same measure, in the same setting: with `Nc1[nH]c2cc(Cl)ccc2c1C(=O)NCCc1ccc(Cl)cc1` the figure was 91.9%. For `O=Cc1ccc2[nH]ccc2c1`, the inhibition turned out to be 11.3%.

A further data set relates to Streptococcus pyogenes. Put plainly: Mixed-type inhibition of Streptococcus pyogenes SrtA deltaN81 mutant expressed in Escherichia coli BL21(DE3) at 5 to 10 uM using Abz-LPETA-Dap(Dnp) as substrate preincubated for 10 mins followed by substrate addition measured every min for 2 hrs by fluorimetric assay relative to control.
`Nc1[nH]c2cc(Cl)ccc2c1C(=O)N1CCOCC1`: the inhibition result is “Active”.

Tested on in another data set: not listed separately
Put plainly: Binding affinity to NT-647 labeled Streptococcus pyogenes His-tagged SrtA deltaN81 mutant expressed in Escherichia coli BL21(DE3) by microscale thermophoresis method.
`Nc1[nH]c2cc(Cl)ccc2c1C(=O)N1CCOCC1` displayed a Kd of 60 µM.

Tested on in another data set: not listed separately
Put plainly: Solubility of the compound. The format is physicochemical.
For `Nc1[nH]c2cc(Cl)ccc2c1C(=O)N1CCOCC1`, the solubility entry was “Soluble”.

Another data set concerns Streptococcus pyogenes. Description: Inhibition of Streptococcus pyogenes SrtA deltaN81 mutant expressed in Escherichia coli BL21(DE3) at 10 uM using Abz-LPETA-Dap(Dnp) as substrate preincubated for 10 mins followed by substrate addition measured every min for 2.5 hrs by fluorimetric assay relative to control.
With `O=C(O)CCC(=O)c1ccc2ccccc2c1`, the inhibition is above 50%. Regarding `Nc1[nH]c2cc(Cl)ccc2c1C(=O)N1CCOCC1`, the inhibition was above 50%. Regarding `Nc1[nH]c2ccccc2c1C(=O)NCCc1ccc(Cl)cc1Cl`, the inhibition is above 50%. With `COc1ccc(C(O)c2[nH]c3ccccc3c2CCN)cc1` (stereo not drawn), the inhibition is above 50%. Same read-out and setting: then `CCOC(=O)c1[nH]c2cc(Cl)ccc2c1C#Cc1ccccc1`, with above 50%; and `CCOC(=O)c1cc(-c2ccccc2)c2cccc(O)c2c1`, with above 50%; and `COc1cccc2c3c(ccc12)NC(=O)CC3`, with above 50%. `Nc1[nH]c2cc(Cl)ccc2c1C(=O)NCCc1ccc(Cl)cc1`: the inhibition is above 50%.

Tested on in the next data set: not listed separately
Description: (§1) Inhibition of Streptococcus pyogenes SrtA deltaN81 mutant expressed in Escherichia coli BL21(DE3) using Abz-LPETA-Dap(Dnp) as substrate preincubated for 10 mins followed by substrate addition measured every min for 2.5 hrs by fluorimetric assay.
In turn, `Nc1[nH]c2cc(Cl)ccc2c1C(=O)N1CCOCC1` displayed an IC50 of 10 µM. In other words, the double-digit micromolar range.

The test system of a further data set is Streptococcus pyogenes. Described as §1.
Turning to `Nc1[nH]c2ccccc2c1C(=O)N1CCOCC1`, the inhibition entry was “inactive”.

As to `Nc1[nH]c2ccccc2c1C(=O)N1CCCCC1`, the inhibition entry is “inactive”. As to `O=C(Nc1[nH]c2ccccc2c1C(=O)N1CCOCC1)c1ccccc1`, the inhibition result is “inactive”.

A further data set has as its system Streptococcus pyogenes. Put plainly: Induction of aggregation of NT-647 labeled Streptococcus pyogenes His-tagged SrtA deltaN81 mutant expressed in Escherichia coli BL21(DE3) by microscale thermophoresis method.
As for `Nc1[nH]c2cc(Cl)ccc2c1C(=O)N1CCOCC1`, the result was inactive.

The values are drawn from ChEMBL document CHEMBL4325849, “Identification of potential antivirulence agents by substitution-oriented screening for inhibitors of Streptococcus pyogenes sortase A” (Eur J Med Chem, 2019).
